Measured values: patent US10005774B2, “Syk inhibitors” (Gilead Sciences, Inc., priority 2013, dated 2018)

What follows are molecules tested against Syk (Homo sapiens, UniProt P43405) (assay: High Throughput Syk Biochemical Assay (KinEASE TR-FRET)). Settings: TABLE D, 20 μM ATP, 1 μM biotinylated peptide, 0.015 nM Syk, 30 min at room temperature, read-out: IC50.
Method: High Throughput Syk Biochemical Assay
Syk activity was measured using KinEASE (Cisbio), a time-resolved fluorescence resonance energy transfer (TR-FRET) immunoassay. In this assay. Syk-catalyzes the phosporylation of a XL665-labeled peptide substrate. Europium conjugated phospho-tyrosine specific antibody binds the resulting phosphorylated peptide. Formation of phosphorylated peptide is quantified by TR-FRET with Europium as the donor and XL665 the acceptor in a 2-step endpoint assay. In brief, test compounds serially diluted in DMSO were delivered into Corning white, low volume, non-binding 384 well plates using the Echo 550 acoustic liquid dispenser (Labcyte®). Syk enzyme and substrates were dispensed into assay plates using a Multi-Flo (Bio-Tek Instruments). […] Percent inhibition was calculated as follows: % Inhibition=100×(RatioSample−Ratio0% Inhibition)/(Ratio100% Inhibition−Ratio0% Inhibition)
Molecule `COc1ccc(-c2cc3ncn(C)c3c(O[C@H](C)[C@H]3CNC(=O)C3)n2)cc1C#N` has an IC50 of 16.7 nM.
In the case of `C[C@@H](Oc1nc(-c2ccc(N3CCOCC3)nc2)cc2ncn(C)c12)[C@H]1CNC(=O)C1`, the IC50 is reported as 11.5 nM.
`C=CC[C@@H](Oc1nc(-c2cnn(C(C)(C)C)c2)cc2ncn(C)c12)[C@H]1CNC(=O)C1` showed an IC50 of 18.9 nM.
With `CC[C@@H](Oc1nc(-c2ccc(OC)c(OC)c2)cc2ncn(C)c12)[C@H]1CNC(=O)C1` the IC50 was 7.63 nM.
`C[C@@H](Oc1cc(-c2cnn(CC(F)F)c2)cc2ncsc12)[C@H]1CNC(=O)C1` (stereo in doubt) [(R)-4-((R)-1-((5-(1-(2,2-difluoroethyl)-1H-pyrazol-4-yl)benzo[d]thiazol-7-yl)oxy)ethyl)pyrrolidin-2-one] was tested, and the IC50 was 1.24 nM.
Molecule `Cc1nc2cc(-c3cnn(C(C)(C)C)c3)cc(O[C@H](C)[C@H]3CNC(=O)C3)c2s1` (stereo in doubt) [(R)-4-((R)-1-((5-(1-(tert-butyl)-1H-pyrazol-4-yl)-2-methylbenzo[d]thiazol-7-yl)oxy)ethyl)pyrrolidin-2-one] has an IC50 of 22.2 nM.
Work on `C[C@@H](Oc1cc(-c2cnn(C(C)(C)C)c2)cc2ncsc12)[C@H]1CNC(=O)C1` (stereo in doubt) [(R)-4-((R)-1-((5-(1-(tert-butyl)-1H-pyrazol-4-yl)benzo[d]thiazol-7-yl)oxy)ethyl)pyrrolidin-2-one] yielded an IC50 of 0.894 nM.
Molecule `C[C@@H](Oc1cc(-c2cnn(C3CCOCC3)c2)cc2ncsc12)[C@H]1CNC(=O)C1` (stereo in doubt) [(R)-4-((R)-1-((5-(1-(tetrahydro-2H-pyran-4-yl)-1H-pyrazol-4-yl)benzo[d]thiazol-7-yl)oxy)ethyl)pyrrolidin-2-one] has an IC50 of 0.699 nM.
In the case of `C[C@@H](Oc1cc(-c2cnn(C3CCC3)c2)cc2ncsc12)[C@H]1CNC(=O)C1` (stereo in doubt) [(R)-4-((R)-1-((5-(1-cyclobutyl-1H-pyrazol-4-yl)benzo[d]thiazol-7-yl)oxy)ethyl)pyrrolidin-2-one], the IC50 is reported as 0.693 nM.
In the case of `CC(C)n1ccc(-c2cc(O[C@H](C)[C@H]3CNC(=O)C3)c3scnc3c2)n1` (stereo in doubt) [(R)-4-((R)-1-((5-(1-isopropyl-1H-pyrazol-3-yl)benzo[d]thiazol-7-yl)oxy)ethyl)pyrrolidin-2-one], the IC50 is reported as 2.52 nM.
`CC(C)n1cc(-c2cc(O[C@H](C)[C@H]3CNC(=O)C3)c3scnc3c2)cn1` (stereo in doubt) [(R)-4-((R)-1-((5-(1-isopropyl-1H-pyrazol-4-yl)benzo[d]thiazol-7-yl)oxy)ethyl)pyrrolidin-2-one] showed an IC50 of 0.697 nM.
With `C[C@@H](Oc1cc(-c2cc3c(cnn3C)s2)cc2ncsc12)[C@H]1CNC(=O)C1` (stereo in doubt) [(R)-4-((R)-1-((5-(1-methyl-1H-thieno[3,2-c]pyrazol-5-yl)benzo[d]thiazol-7-yl)oxy)ethyl)pyrrolidin-2-one] the IC50 was 2.97 nM.
`COc1ccc(-c2cc(O[C@H](C)[C@H]3CNC(=O)C3)c3scnc3c2)cc1OC` (stereo in doubt) [(R)-4-((R)-1-((5-(3,4-dimethoxyphenyl)benzo[d]thiazol-7-yl)oxy)ethyl)pyrrolidin-2-one] was tested, and the IC50 was 5 nM.
`C[C@@H](Oc1cc(-c2ccc(N3CCN(C4COC4)CC3)cc2)cc2ncsc12)[C@H]1CNC(=O)C1` (stereo in doubt) [(R)-4-((R)-1-((5-(4-(4-(oxetan-3-yl)piperazin-1-yl)phenyl)benzo[d]thiazol-7-yl)oxy)ethyl)pyrrolidin-2-one] showed an IC50 of 0.681 nM.
In the case of `C[C@@H](Oc1cc(-c2ccc(N3CCOCC3)cc2)cc2ncsc12)[C@H]1CNC(=O)C1` (stereo in doubt) [(R)-4-((R)-1-((5-(4-morpholinophenyl)benzo[d]thiazol-7-yl)oxy)ethyl)pyrrolidin-2-one], the IC50 is reported as 1.82 nM.
`COc1ccc(-c2cc(O[C@H](C)[C@H]3CNC(=O)C3)c3scnc3c2)nc1OC` (stereo in doubt) [(R)-4-((R)-1-((5-(5,6-dimethoxypyridin-2-yl)benzo[d]thiazol-7-yl)oxy)ethyl)pyrrolidin-2-one] gave an IC50 of 0.689 nM.
With `C[C@@H](Oc1cc(-c2ccc(N3CCN(C4COC4)CC3)cn2)cc2ncsc12)[C@H]1CNC(=O)C1` (stereo in doubt) [(R)-4-((R)-1-((5-(5-(4-(oxetan-3-yl)piperazin-1-yl)pyridin-2-yl)benzo[d]thiazol-7-yl)oxy)ethyl)pyrrolidin-2-one] the IC50 was 1.73 nM.
`C[C@@H](Oc1cc(-c2ccc(N3CCN(C4CCOCC4)CC3)cn2)cc2ncsc12)[C@H]1CNC(=O)C1` (stereo in doubt) [(R)-4-((R)-1-((5-(5-(4-(tetrahydro-2H-pyran-4-yl)piperazin-1-yl)pyridin-2-yl)benzo[d]thiazol-7-yl)oxy)ethyl)pyrrolidin-2-one] was tested, and the IC50 was 2.62 nM.
With `CC(=O)N1CCN(c2ccc(-c3cc(O[C@H](C)[C@H]4CNC(=O)C4)c4scnc4c3)nc2)CC1` (stereo in doubt) [(R)-4-((R)-1-((5-(5-(4-acetylpiperazin-1-yl)pyridin-2-yl)benzo[d]thiazol-7-yl)oxy)ethyl)pyrrolidin-2-one] the IC50 was 1.59 nM.
`C[C@@H](Oc1cc(-c2ccc(N3CCOCC3)cn2)cc2ncsc12)[C@H]1CNC(=O)C1` (stereo in doubt) [(R)-4-((R)-1-((5-(5-morpholinopyridin-2-yl)benzo[d]thiazol-7-yl)oxy)ethyl)pyrrolidin-2-one] gave an IC50 of 1.88 nM.
Work on `C[C@H](Oc1cc(-c2cnc(C(C)(C)C)s2)cc2ncsc12)[C@@H]1CNC(=O)C1` (stereo in doubt) [(S)-4-((S)-1-((5-(2-(tert-butyl)thiazol-5-yl)benzo[d]thiazol-7-yl)oxy)ethyl)pyrrolidin-2-one] yielded an IC50 of 1.5 nM.
`C[C@@H](Oc1cc(-c2ccc(N3CCN(C(=O)OC(C)(C)C)CC3)cc2)cc2ncsc12)[C@H]1CNC(=O)C1` (stereo in doubt) [tert-butyl 4-(4-(7-((R)-1-((R)-5-oxopyrrolidin-3-yl)ethoxy)benzo[d]thiazol-5-yl)phenyl)piperazine-1-carboxylate] was tested, and the IC50 was 9.04 nM.
With `C[C@@H](Oc1cc(-c2ccc(N3CCN(C(=O)OC(C)(C)C)CC3)cn2)cc2ncsc12)[C@H]1CNC(=O)C1` (stereo in doubt) [tert-butyl 4-(6-(7-((R)-1-((R)-5-oxopyrrolidin-3-yl)ethoxy)benzo[d]thiazol-5-yl)pyridin-3-yl)piperazine-1-carboxylate] the IC50 was 5.16 nM.

Same assay, conditions: table 'ALL NEW COMPOUNDS IN 2014', 20 μM ATP, 1 μM biotinylated peptide, 0.015 nM Syk, 30 min at room temperature, read-out: Syk IC50
With `C[C@@H](Oc1nc(-c2ccc3oc(=O)n(C)c3c2)cc2ncn(C3CC3)c12)[C@H]1CNC(=O)C1` the IC50 was 14.4 nM.
`C[C@@H](Oc1nc(-c2ccc3c(c2)n(C)c(=O)n3C)cc2ncn(C3CC3)c12)[C@H]1CNC(=O)C1` gave an IC50 of 4.84 nM.
`Cc1ncc(-c2cc(O[C@H](C)[C@H]3CNC(=O)C3)c3c(c2)ncn3C2CC2)[nH]1` showed an IC50 of 20.9 nM.
Molecule `C[C@@H](Oc1nc(-c2cnn(C(C)(C)CO)c2)cc2ncn(C3CC3)c12)[C@H]1CNC(=O)C1` has an IC50 of 3.43 nM.
`C[C@@H](Oc1nc(-c2cnn(CC(C)(C)O)c2)cc2ncn(C3CC3)c12)[C@H]1CNC(=O)C1` showed an IC50 of 9.65 nM.
`C[C@@H](Oc1nc(-c2cnn(C3COC3)c2)cc2ncn(C3CC3)c12)[C@H]1CNC(=O)C1` gave an IC50 of 4.65 nM.
`C[C@@H](Oc1nc(-c2cnn(-c3ccncc3)c2)cc2ncn(C3CC3)c12)[C@H]1CNC(=O)C1` showed an IC50 of 8.29 nM.
`C[C@@H](Oc1nc(-c2ccc3c(C4CC4)n[nH]c3c2)cc2ncn(C3CC3)c12)[C@H]1CNC(=O)C1` was tested, and the IC50 was 6.12 nM.
Work on `C[C@@H](Oc1nc(-c2ccc(C3(O)CC3)cc2)cc2ncn(C3CC3)c12)[C@H]1CNC(=O)C1` yielded an IC50 of 8.52 nM.
For `C[C@@H](Oc1nc(-c2ccccc2)cc2ncn(C3CC3)c12)[C@H]1CNC(=O)C1`, the IC50 was 12.5 nM.
